Where a name gives a salt, the structure may show the parent alone.
Columns and labels:
[1] = Resistance index, ratio of IC50 for antiproliferative activity against paclitaxel resistant human A2780/PTX cells to IC50 for antiproliferative activity against human A2780 cells; format: functional
[2] = Antiproliferative activity against paclitaxel resistant human A2780/PTX cells assessed as reduction in cell viability incubated for 48 hrs by MTT assay; format: functional, cell-based
A2780 = test: Antiproliferative activity against human A2780 cells assessed as reduction in cell viability incubated for 48 hrs by MTT assay; format: functional, cell-based; conditions: A2780, 48 h
HCT-8 = test: Antiproliferative activity against human HCT-8 cells assessed as reduction in cell viability incubated for 48 hrs by MTT assay; format: functional, cell-based; conditions: HCT-8, 48 h
HeLa = test: Antiproliferative activity against human HeLa cells assessed as reduction in cell viability incubated for 48 hrs by MTT assay; format: functional, cell-based
A549 = test: Antiproliferative activity against human A549 cells assessed as reduction in cell viability incubated for 48 hrs by MTT assay; format: functional, cell-based; conditions: A549, 48 h
MCF7 = test: Antiproliferative activity against human MCF7 cells assessed as reduction in cell viability incubated for 48 hrs by MTT assay; format: functional, cell-based; conditions: MCF7, 48 h
MHCC97H [3] = test: Antiproliferative activity against human MHCC97H cells assessed as reduction in cell viability incubated for 48 hrs by MTT assay; format: functional, cell-based
MHCC97H [4] = test: Antitumor activity against human MHCC97H cells xenografted in BALB/c mouse assessed as tumor growth inhibition at 30 mg/kg, ip administered every other day for 30 days; format: functional; conditions: 720 h, time 30 day, read-out: TGI
MHCC97H [5] = test: Antitumor activity against human MHCC97H cells xenografted in BALB/c mouse assessed as tumor weight at 30 mg/kg, ip administered every other day for 30 days; format: functional; conditions: time 30 day
MHCC97H [6] = test: Antitumor activity against human MHCC97H cells xenografted in BALB/c mouse assessed as tumor volume at 30 mg/kg, ip administered every other day for 30 days; format: functional; conditions: time 30 day
[7] = Antiproliferative activity against vincristine resistant human HCT-8/VCR cells assessed as reduction in cell viability incubated for 48 hrs by MTT assay; format: functional, cell-based
[8] = Resistance index, ratio of IC50 for antiproliferative activity against vincristine resistant human HCT-8/VCR cells to IC50 for antiproliferative activity against human HCT-8 cells; format: functional
NCI/ADR-RES = test: Antiproliferative activity against adriamycin resistant human MCF7/ADR cells assessed as reduction in cell viability incubated for 48 hrs by MTT assay; format: functional, cell-based
[9] = Inhibition of TrxR in human MHCC97H cells using DTNB as substrate preincubated for 24 hrs in presence of NADPH followed by substrate addition by microplate reader analysis; format: cell-based
[10] = Inhibition of TrxR (unknown origin) using DTNB as substrate incubated for 5 mins in presence of NADPH followed by substrate addition by microplate reader analysis; set-up: species or system Homo sapiens

Structure (SMILES): CC(=O)O[C@H]1C(=O)[C@@]2(C)[C@H]([C@H](OC(=O)c3ccccc3)[C@]3(O)C[C@H](OC(=O)[C@H](O)[C@@H](NC(=O)c4ccccc4)c4ccccc4)C(C)=C1C3(C)C)[C@]1(OC(C)=O)CO[C@@H]1C[C@@H]2O [PACLITAXEL]
- Ratio IC50 [1]: 16.4
- IC50 [2]: 344 nM
- IC50 (A2780): 21 nM

Structure (SMILES): COc1ccc2c(/C=C/C(=O)c3cc(OC)c(OC)c([N+](=O)[O-])c3)c[nH]c2c1
- IC50 (HCT-8): 982 nM
- IC50 (HeLa): 850 nM
- IC50 (A549): 331 nM
- IC50 (MCF7): 662 nM
- IC50 (MHCC97H [3]): 289 nM
- IC50 (A2780): 742 nM

Structure (SMILES): COc1ccc2c(/C=C/C(=O)c3cc(OC)c(OC)c(SC)c3)cn(C)c2c1
- IC50 (HCT-8): 157 nM
- IC50 (HeLa): 167 nM
- IC50 (A549): 156 nM
- IC50 (MCF7): 166 nM
- IC50 (MHCC97H [3]): 122 nM
- IC50 (A2780): 145 nM

Structure (SMILES): COc1cc(C(=O)/C=C/c2c[nH]c3ccccc23)cc([N+](=O)[O-])c1OC
- IC50 (HCT-8): 1390 nM
- IC50 (HeLa): 1350 nM
- IC50 (A549): 1510 nM
- IC50 (MCF7): 1290 nM
- IC50 (MHCC97H [3]): 830 nM
- IC50 (A2780): 1280 nM

Structure (SMILES): O=c1c2ccccc2[se]n1CCn1[se]c2ccccc2c1=O
- inhibition in vivo at 30 mg/kg (MHCC97H [4]): 51.7%
- Activity (MHCC97H [5]): 1.119 g
- Activity (MHCC97H [6]): 832.6 mm3

Structure (SMILES): COc1cc(C(=O)/C=C/c2cn(C)c3ccccc23)cc([N+](=O)[O-])c1OC
- IC50 (HCT-8): 1660 nM
- IC50 (HeLa): 1960 nM
- IC50 (A549): 1060 nM
- IC50 (MCF7): 1770 nM
- IC50 (MHCC97H [3]): 850 nM
- IC50 (A2780): 1890 nM

Structure (SMILES): CC[C@]1(O)C[C@H]2CN(CCc3c([nH]c4ccccc34)[C@@](C(=O)OC)(c3cc4c(cc3OC)N(C=O)[C@H]3[C@@](O)(C(=O)OC)[C@H](OC(C)=O)[C@]5(CC)C=CCN6CC[C@]43[C@@H]65)C2)C1 [VINCRISTINE]
- IC50 [7]: 10200 nM
- IC50 (HCT-8): 217 nM
- Ratio IC50 [8]: 47

Structure (SMILES): COc1ccc2c(/C=C/C(=O)c3cc(N)c(OC)c(OC)c3)c[nH]c2c1
- IC50 (HCT-8): 368 nM
- IC50 (HeLa): 155 nM
- IC50 (A549): 193 nM
- IC50 (MCF7): 249 nM
- IC50 (MHCC97H [3]): 186 nM
- IC50 (A2780): 204 nM

Structure (SMILES): COc1ccc2c(/C=C/C(=O)c3cc(OC)c(OC)c([N+](=O)[O-])c3)cn(C)c2c1
- IC50 (HCT-8): 753 nM
- IC50 (HeLa): 951 nM
- IC50 (A549): 1020 nM
- IC50 (MCF7): 1520 nM
- IC50 (MHCC97H [3]): 562 nM
- IC50 (A2780): 952 nM

Structure (SMILES): COc1ccc(/C=C\c2cc(OC)c(OC)c(OC)c2)cc1OP(=O)(O)O [FOSBRETABULIN]
- inhibition in vivo at 30 mg/kg (MHCC97H [4]): 39.2%
- Activity (MHCC97H [5]): 0.888 g
- Activity (MHCC97H [6]): 1031.1 mm3

Structure (SMILES): COc1ccc2c(/C=C/C(=O)c3cc(OC)c(OC)c(SC)c3)c[nH]c2c1
- IC50 (HCT-8): 138 nM
- IC50 (HeLa): 131 nM
- IC50 (A549): 115 nM
- IC50 (MCF7): 101 nM
- IC50 (MHCC97H [3]): 112 nM
- IC50 (A2780): 139 nM

Structure (SMILES): COc1cc(C(=O)/C=C/c2c[nH]c3ccccc23)cc(N)c1OC
- IC50 (HCT-8): 577 nM
- IC50 (HeLa): 529 nM
- IC50 (A549): 342 nM
- IC50 (MCF7): 595 nM
- IC50 (MHCC97H [3]): 263 nM
- IC50 (A2780): 351 nM

Structure (SMILES): COc1cc(C(=O)/C=C/c2cn(C)c3ccccc23)cc(SC)c1OC
- IC50 (HCT-8): 210 nM
- IC50 (HeLa): 105 nM
- IC50 (A549): 188 nM
- IC50 (MCF7): 102 nM
- IC50 (MHCC97H [3]): 150 nM
- IC50 (A2780): 193 nM

Structure (SMILES): COc1ccc2c(/C=C(\C)C(=O)c3cc(OC)c(OC)c([Se]C)c3)cn(C)c2c1
- IC50 (HCT-8): 25 nM
- IC50 (HeLa): 32 nM
- IC50 (A549): 15 nM
- IC50 (MCF7): 44 nM
- IC50 (MHCC97H [3]): 15 nM
- IC50 (A2780): 26 nM

Structure (SMILES): COc1ccc2c(/C=C/C(=O)c3cc(N)c(OC)c(OC)c3)cn(C)c2c1
- IC50 (HCT-8): 455 nM
- IC50 (HeLa): 356 nM
- IC50 (A549): 106 nM
- IC50 (MCF7): 505 nM
- IC50 (MHCC97H [3]): 198 nM
- IC50 (A2780): 156 nM

Structure (SMILES): COc1cc(C(=O)/C(C)=C/c2cn(C)c3ccccc23)cc([Se]C)c1OC
- IC50 (HCT-8): 48 nM
- IC50 (HeLa): 63 nM
- IC50 (A549): 18 nM
- IC50 (MCF7): 77 nM
- IC50 (MHCC97H [3]): 26 nM
- IC50 (A2780): 35 nM

Structure (SMILES): COc1cc(C(=O)/C=C/c2cn(C)c3ccccc23)cc(N)c1OC
- IC50 (HCT-8): 605 nM
- IC50 (HeLa): 668 nM
- IC50 (A549): 498 nM
- IC50 (MCF7): 631 nM
- IC50 (MHCC97H [3]): 289 nM
- IC50 (A2780): 441 nM

Structure (SMILES): COc1ccc(/C=C\c2cc(OC)c(OC)c(OC)c2)cc1O [COMBRETASTATIN A4]
- IC50 (HCT-8): 23 nM
- IC50 (HeLa): 16 nM
- IC50 (MCF7): 29 nM
- IC50 (MHCC97H [3]): 8 nM

Structure (SMILES): COc1ccc2c(/C=C/C(=O)c3cc(OC)c(OC)c([Se]C)c3)c[nH]c2c1
- IC50 (HCT-8): 78 nM
- IC50 (HeLa): 104 nM
- IC50 (A549): 67 nM
- IC50 (MCF7): 83 nM
- IC50 (MHCC97H [3]): 58 nM
- IC50 (A2780): 65 nM

Structure (SMILES): COc1cc(C(=O)/C(C)=C/c2c[nH]c3ccccc23)cc([Se]C)c1OC
- IC50 (HCT-8): 32 nM
- IC50 (HeLa): 34 nM
- IC50 (A549): 12 nM
- IC50 (MCF7): 59 nM
- IC50 (MHCC97H [3]): 18 nM
- IC50 (A2780): 25 nM

Structure (SMILES): COc1cc(C(=O)/C=C/c2c[nH]c3ccccc23)cc(SC)c1OC
- IC50 (HCT-8): 167 nM
- IC50 (HeLa): 159 nM
- IC50 (A549): 152 nM
- IC50 (MCF7): 186 nM
- IC50 (MHCC97H [3]): 131 nM
- IC50 (A2780): 169 nM

Structure (SMILES): COc1cccc2c1C(=O)c1c(O)c3c(c(O)c1C2=O)C[C@@](O)(C(=O)CO)C[C@@H]3O[C@H]1C[C@H](N)[C@H](O)[C@H](C)O1 [DOXORUBICIN HYDROCHLORIDE]
- IC50 (NCI/ADR-RES): 232000 nM

Structure (SMILES): COc1cc(/C=C/C(=O)CC(=O)/C=C/c2ccc(O)c(OC)c2)ccc1O [CURCUMIN]
- IC50 [9]: 28800 nM
- IC50 [10]: 29000 nM
